PubChem BioAssay (NCI)
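Growth conditions: 96-well plates. Treatment: test compound, 48 hours, 5 concentrations. Analysis: linear interpolation between bracketing concentrations; unreached endpoints set to highest concentration. The concentration for 50% growth inhibition is given as GI50. At the TGI there is no net growth.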

What was measured:
Assay in all cases: growth of human tumour cells (NCI), 48 h
SR leukemia = system: SR leukemia
NCI-H522 lung = system: NCI-H522 lung
SW-620 colon = system: SW-620 colon
NCI-H226 lung = system: NCI-H226 lung
NCI-H460 lung = system: NCI-H460 lung
SNB-19 CNS = system: SNB-19 CNS
SF-539 CNS = system: SF-539 CNS
RPMI-8226 leukemia = system: RPMI-8226 leukemia
KM12 colon = system: KM12 colon
UO-31 renal = system: UO-31 renal

| SMILES | TGI (SR leukemia) | TGI (NCI-H522 lung) | TGI (SW-620 colon) | TGI (NCI-H226 lung) | TGI (NCI-H460 lung) | TGI (SNB-19 CNS) | TGI (SF-539 CNS) | TGI (RPMI-8226 leukemia) | TGI (KM12 colon) | TGI (UO-31 renal) | GI50 (SR leukemia) | GI50 (NCI-H522 lung) | GI50 (SW-620 colon) | GI50 (NCI-H226 lung) | GI50 (NCI-H460 lung) | GI50 (SNB-19 CNS) | GI50 (SF-539 CNS) | GI50 (RPMI-8226 leukemia) | GI50 (KM12 colon) | GI50 (UO-31 renal) |
| --- | --- | --- | --- | --- | --- | --- | --- | --- | --- | --- | --- | --- | --- | --- | --- | --- | --- | --- | --- | --- |
| CC1(c2ccc[n+](Cc3ccccc3)c2)OCCO1 | > 100 µM | > 100 µM | > 100 µM | > 100 µM | > 100 µM | > 100 µM | > 100 µM | > 100 µM | > 100 µM | > 100 µM |  |  |  |  |  |  |  |  |  |  |
| C[C@@H]1CC[C@H]2C(C(O)CCCCC(O)C3=C(C(F)(F)F)O[C@@H]4O[C@@]5(C)CC[C@H]6[C@H](C)CC[C@@H]3[C@@]46OO5)=C(C(F)(F)F)O[C@@H]3O[C@@]4(C)CC[C@@H]1[C@]32OO4 (some centres undefined) | 6.04 µM | > 100 µM | > 100 µM | > 100 µM | > 100 µM | > 100 µM | > 100 µM | > 100 µM | > 100 µM | > 100 µM | 1.91 µM | 26.6 µM | 5.64 µM | 33.6 µM | 15.3 µM | > 100 µM | 90.7 µM | 5.06 µM | 4.71 µM | 10.2 µM |
| CCOC(=O)c1cc2c(C(=O)c3ccc([N+](=O)[O-])cc3)c(C(C)=O)ccc2[nH]1 | > 100 µM | 36.5 µM | > 100 µM | > 100 µM | > 100 µM | 87.9 µM | > 100 µM | > 100 µM | > 100 µM | > 100 µM |  |  |  |  |  |  |  |  |  |  |
| CSC1=N/C(=C\c2ccco2)C(=O)N1CN1CCOCC1 | > 92.6 µM | > 100 µM | > 95.4 µM | > 100 µM | 27.7 µM | > 100 µM | 35.3 µM | > 80.4 µM | > 100 µM | > 100 µM |  |  |  |  |  |  |  |  |  |  |
| CCOP(=O)(OCC)C1CC(n2cc(C)c(=O)[nH]c2=O)OC1CO (centres undefined) | > 100 µM | > 100 µM | > 100 µM | > 100 µM | > 100 µM | > 100 µM | > 100 µM | > 100 µM | > 100 µM | > 100 µM |  |  |  |  |  |  |  |  |  |  |
| COc1ccc2c(c1)c(CC(=O)O)c(C)n2C(=O)c1ccc(Cl)cc1 | > 100 µM | > 100 µM | > 100 µM | > 100 µM | > 100 µM | > 100 µM | > 100 µM | > 100 µM | > 100 µM | > 100 µM |  |  |  |  |  |  |  |  |  |  |
| Cc1c(NC(=O)CSC(=S)N2CCN(Cc3ccccc3)CC2)c(=O)n(-c2ccccc2)n1C | > 100 µM | > 100 µM | > 100 µM | > 100 µM | > 100 µM | > 100 µM | > 100 µM | > 100 µM | > 100 µM | > 100 µM |  |  |  |  |  |  |  |  |  |  |
| CCN(C(=S)N[C@H](C(=O)N[C@@H](C)C(=O)OC)C(C)C)c1ccccc1 | 52.7 µM | > 100 µM | > 100 µM | > 100 µM | > 100 µM | > 100 µM | 84.3 µM | > 100 µM | > 100 µM | > 100 µM |  |  |  |  |  |  |  |  |  |  |
| Cc1ccc2c(c1C)C(=O)/C(=C/c1ccccc1C(=O)O)C2 | > 100 µM | > 100 µM | > 100 µM | > 100 µM | > 100 µM | > 100 µM | > 100 µM | > 100 µM | > 100 µM | > 100 µM |  |  |  |  |  |  |  |  |  |  |
| Cc1nc2c(sc(=S)n2-c2ccccc2)c(=O)[nH]1 | > 100 µM | > 100 µM | > 100 µM | > 100 µM | > 100 µM | > 100 µM | > 100 µM | > 100 µM | > 100 µM | > 100 µM |  |  |  |  |  |  |  |  |  |  |
| S=C1SCN(Cc2ccco2)CN1c1ccc(Br)cc1 | 31.4 µM | 23.7 µM | 62.3 µM | 69.1 µM | 28.5 µM | 72.2 µM | 36.2 µM | 35.3 µM | 31.7 µM | 44.9 µM |  |  |  |  |  |  |  |  |  |  |
| COc1ccc(C(=O)Cc2ccc(Br)cc2)cc1OC | > 100 µM | > 100 µM | > 100 µM | > 100 µM | > 100 µM | > 100 µM | > 100 µM | > 100 µM |  | > 100 µM |  |  |  |  |  |  |  |  |  |  |
| C/C=C(/C)C(=O)O[C@H](C[C@@H](C)[C@H]1CC(c2ccoc2)OC1=O)[C@@]1(C)C(=O)CCC2O[C@]21C (some centres undefined) | > 100 µM | > 100 µM | > 100 µM | > 100 µM | > 100 µM | > 100 µM | > 100 µM | > 100 µM | > 100 µM | > 100 µM |  |  |  |  |  |  |  |  |  |  |
| CC1=NN(c2nc(N)nc(/C(C#N)=C/c3cccn3-c3cc(Cl)cc(Cl)c3)n2)C(C)(C)C1 | > 100 µM | > 100 µM | > 100 µM | > 100 µM | > 100 µM | > 100 µM | > 100 µM | > 100 µM | > 100 µM | > 100 µM |  |  |  |  |  |  |  |  |  |  |
| COC(=O)[C@H]1CO[C@H]2C/C(C)=C/CC/C(C)=C/CC[C@@]3(C)O[C@@H]3C[C@H]21 | 27.1 µM | 18.8 µM | 24.2 µM | 29.2 µM | 21.9 µM | > 50 µM | > 50 µM | > 50 µM | 18.4 µM | > 50 µM |  |  |  |  |  |  |  |  |  |  |
| CCOC(=O)c1c(N2CCCC2)ncn(Cc2ccccc2)c1=S | > 100 µM | > 100 µM | > 100 µM | > 100 µM | > 100 µM | > 100 µM | > 100 µM | > 100 µM | > 100 µM | > 100 µM |  |  |  |  |  |  |  |  |  |  |
| CC(=O)c1c(C(F)(F)F)n([O-])c2cc(Cl)c(Cl)cc2[n+]1=O | 0.0361 µM | 0.368 µM | 1.34 µM | 3.08 µM | 0.852 µM | 2.27 µM | 2.46 µM | 0.353 µM | 0.403 µM | 1.59 µM |  |  |  |  |  |  |  |  |  |  |
| CCN(CC)c1ccc2cc(C(=O)Nc3cccc4ccccc34)c(=N)oc2c1 | > 100 µM | > 100 µM | > 100 µM | > 100 µM | > 100 µM | > 100 µM | > 100 µM | > 100 µM | > 100 µM | > 100 µM |  |  |  |  |  |  |  |  |  |  |
| O=C1/C(=N\S(=O)(=O)c2ccccc2)C([n+]2ccc(Cc3ccccc3)cc2)=C([O-])c2ccccc21 | > 100 µM | 2.11 µM | 1.96 µM | 3.73 µM | 2.22 µM | 3.3 µM | 3.45 µM | > 100 µM | 4.7 µM | 4.62 µM |  |  |  |  |  |  |  |  |  |  |
